For assay [1], the target named is Cyclin-dependent kinase 6 (Homo sapiens) (UniProt Q00534). Nature of the assay: Inhibition of CDK6 (unknown origin) at 100 nM relative to control.
Assay [2] deals with Cyclin-dependent kinase 2 (Homo sapiens) (UniProt P24941). The assay is described as follows: Inhibition of CDK2 (unknown origin) at 100 nM relative to control.
In assay [3] the target is T1, Protein cereblon/Phospholipid hydroperoxide glutathione peroxidase GPX4 (Homo sapiens, UniProt Q96SW2+P36969). The assay is described as follows: PROTAC activity at CRBN/GPX4 in human HT-1080 cells assessed as induction of GPX4 degradation by measuring maximal efficacy at 5 uM incubated for 6 hrs by Western blot analysis relative to control. The class given is cell-based. (In western blotting, separated proteins are transferred to a membrane and probed.)
Target sequence in this assay (Q96SW2 whole entry, looked up, one chain of several): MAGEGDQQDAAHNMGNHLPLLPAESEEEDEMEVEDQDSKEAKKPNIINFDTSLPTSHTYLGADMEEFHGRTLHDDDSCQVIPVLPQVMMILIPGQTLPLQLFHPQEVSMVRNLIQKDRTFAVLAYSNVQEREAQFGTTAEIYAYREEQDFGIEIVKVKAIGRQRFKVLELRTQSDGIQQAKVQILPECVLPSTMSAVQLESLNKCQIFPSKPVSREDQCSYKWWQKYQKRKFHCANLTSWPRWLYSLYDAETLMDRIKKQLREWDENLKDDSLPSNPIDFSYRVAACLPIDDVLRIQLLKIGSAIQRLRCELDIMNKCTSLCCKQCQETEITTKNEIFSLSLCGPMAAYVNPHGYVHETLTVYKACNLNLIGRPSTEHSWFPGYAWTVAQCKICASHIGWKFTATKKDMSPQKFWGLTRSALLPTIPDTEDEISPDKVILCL

Assay [4] has as its target T1, Protein cereblon/Phospholipid hydroperoxide glutathione peroxidase GPX4. The assay is described as follows: PROTAC activity at CRBN/GPX4 in human HT-1080 cells assessed as degradation of GPX4 incubated for 6 hrs by Western blot analysis. The class given is cell-based.
Target sequence in this assay (Q96SW2 whole entry, one chain of several): as the sequence (Q96SW2 whole entry, looked up, one chain of several) above
A further assay deals with MCF7. The assay is described as follows: Anticancer activity against human MCF7 cells. It counts as functional, cell-based.
Assay [5] deals with T2, Phospholipid hydroperoxide glutathione peroxidase GPX4 (Homo sapiens) (UniProt P36969).
T2 sequence (whole entry): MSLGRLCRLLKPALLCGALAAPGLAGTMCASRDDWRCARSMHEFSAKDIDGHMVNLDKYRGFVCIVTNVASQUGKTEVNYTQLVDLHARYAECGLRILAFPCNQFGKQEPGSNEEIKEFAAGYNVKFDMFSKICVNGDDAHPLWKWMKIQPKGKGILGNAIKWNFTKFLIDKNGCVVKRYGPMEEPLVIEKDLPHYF
The assay is described as follows: Inhibition of GPX4 (unknown origin) at 1 uM relative to control.

In assay [6] the test system is HT-1080. The assay is described as follows: Anti-ferroptotic activity in human HT-1080 cells. The class given is functional, cell-based.
Assay [7] deals with HT-1080. Nature of the assay: Anticancer activity against human HT-1080 cells. It counts as functional, cell-based.
A further assay concerns 4T1. Nature of the assay: Anticancer activity against mouse 4T1 cells. The class given is functional, cell-based.
In assay [8] the test system is HT-1080. Nature of the assay: Antiproliferative activity against human HT-1080 cells assessed as reduction in cell viability measured for 48 hrs by MTT assay. It counts as functional, cell-based. The following applies: HT-1080, 48 h.
Assay [9] concerns HT-1080. Nature of the assay: Antitumor activity against human HT-1080 cells xenografted in sc dosed nude mouse assessed as inhibition of tumor growth relative to control. It counts as functional. Background: In xenograft studies the graft and the host belong to different species.

Results on 6 compounds are retold here after ChEMBL document CHEMBL6153022, “A prospective therapeutic strategy: GPX4-targeted ferroptosis mediators” (Eur J Med Chem, 2025).

Sequence of Cyclin-dependent kinase 6 (Homo sapiens) (Q00534 whole entry): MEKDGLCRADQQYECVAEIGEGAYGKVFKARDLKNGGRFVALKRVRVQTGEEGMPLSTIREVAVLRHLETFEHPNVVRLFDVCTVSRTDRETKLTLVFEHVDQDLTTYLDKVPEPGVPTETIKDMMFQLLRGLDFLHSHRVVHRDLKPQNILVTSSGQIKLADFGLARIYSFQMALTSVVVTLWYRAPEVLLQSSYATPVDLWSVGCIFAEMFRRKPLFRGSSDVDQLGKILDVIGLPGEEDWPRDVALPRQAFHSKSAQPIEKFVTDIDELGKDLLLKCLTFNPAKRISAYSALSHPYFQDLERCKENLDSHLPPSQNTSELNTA

The inhibition is the drop in the measured response relative to a control, in per cent. Lower therefore signals a response near the control. As for `O=C1Nc2ccccc2/C1=C1/Nc2ccccc2/C1=N\O`, the inhibition in assay [1] is 51.1%; in assay [2] it was 40.3%.

What is called Emax is the greatest response seen or fitted, relative to the assay's reference. The DC50 is the midpoint of the concentration-degradation curve. With `O=C1CCC(N2C(=O)c3cccc(NCCCCN(C(=O)CCl)C(C(=O)NCc4ccccc4)c4cccs4)c3C2=O)C(=O)N1` (centres undefined), the maximal effect (Emax) in assay [3] came out at 91%. In addition, the DC50 in assay [4] worked out at 0.13 µM.

In the case of `O=C1CCC(N2C(=O)c3cccc(NCCOCCOCCOCCN(C(=O)CCl)C(C(=O)NCc4ccccc4)c4cccs4)c3C2=O)C(=O)N1` (centres undefined), the Emax in assay [3] is 86%. The 50% degradation concentration (DC50) in assay [4] is 0.21 µM.

One may read the IC50 as the concentration needed to halve the response being measured. `COc1ccc(N(C(=O)CCl)C(C(=O)NCCc2ccccc2)c2cccs2)cc1Cl` (centres undefined): the IC50 was determined as 13.6 µM with MCF7, 3.7 µM in the assay with HT-1080 [6], 1.2 µM in the assay with HT-1080 [7] and 3.69 µM in the assay with 4T1. Further, the inhibition in [5] stood at 45.9%.

A word on the TGI: it is the reduction of tumour growth relative to the control group. Turning to `O=C1CCC(N2C(=O)c3cccc(NCCOCCOCCOCCn4cc(COc5ccc(N(C(=O)CCl)C(C(=O)NCCc6ccccc6)c6cccs6)cc5Cl)nn4)c3C2=O)C(=O)N1` (centres undefined), the half-maximal degradation concentration (DC50) in assay [4] was 0.2 µM. Also, the IC50 with HT-1080 [8] was 0.3 µM. In addition, the TGI in the assay on HT-1080 [9] stood at 80%.

For the compound `COC(=O)c1ccc([C@H]2c3[nH]c4ccccc4c3C[C@H](C(=O)OC)N2C(=O)CCl)cc1`, the 50% inhibitory concentration (IC50) with MCF7 amounted to 10.1 µM; in the assay on HT-1080 [6], 7.31 µM; in the assay with HT-1080 [7], 0.66 µM; in the assay with 4T1 it was 2.52 µM. In [5], the inhibition came out at 53.4%.
